Patent publication US7504420B2, “Compounds which inhibit beta-secretase activity and methods of use” (CoMentis, Inc., priority 2005, dated 2009)

Key:
memapsin 2 = memapsin 2 (Homo sapiens, UniProt P56817); assay: Inhibition of memapsin 2 catalytic activity (Ki); format: biochemical; settings: memapsin 2, pH 4, 37° C.; read-out: M2K
Procedure, shortened: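 Run at 37 °C and pH 4: compound and enzyme pre-incubated 20 min before FS-2 fluorogenic substrate started hydrolysis,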

cathepsin D = cathepsin D (Homo sapiens, UniProt P07339); assay: Inhibition of cathepsin D catalytic activity (Ki); format: biochemical; settings: pH 4.0, 37° C., read-out: CDK
Chain of cathepsin D (P07339 65-412, species assumed): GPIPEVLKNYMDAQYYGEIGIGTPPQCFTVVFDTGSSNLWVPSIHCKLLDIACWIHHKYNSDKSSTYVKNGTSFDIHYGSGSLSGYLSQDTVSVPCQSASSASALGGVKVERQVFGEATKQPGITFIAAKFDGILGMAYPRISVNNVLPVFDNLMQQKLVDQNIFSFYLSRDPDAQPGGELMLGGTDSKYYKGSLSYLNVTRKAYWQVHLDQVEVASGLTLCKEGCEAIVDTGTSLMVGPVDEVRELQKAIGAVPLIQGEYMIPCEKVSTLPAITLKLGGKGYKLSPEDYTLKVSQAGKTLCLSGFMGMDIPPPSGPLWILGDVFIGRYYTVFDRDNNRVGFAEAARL

memapsin 1 = target: T1, memapsin 1 (Homo sapiens, UniProt Q9Y5Z0); assay: Inhibition of memapsin 1 catalytic activity (Ki); format: biochemical; settings: memapsin 1, pH 4.0, 37° C.; read-out: M1K
T1 sequence (Q9Y5Z0 63-518): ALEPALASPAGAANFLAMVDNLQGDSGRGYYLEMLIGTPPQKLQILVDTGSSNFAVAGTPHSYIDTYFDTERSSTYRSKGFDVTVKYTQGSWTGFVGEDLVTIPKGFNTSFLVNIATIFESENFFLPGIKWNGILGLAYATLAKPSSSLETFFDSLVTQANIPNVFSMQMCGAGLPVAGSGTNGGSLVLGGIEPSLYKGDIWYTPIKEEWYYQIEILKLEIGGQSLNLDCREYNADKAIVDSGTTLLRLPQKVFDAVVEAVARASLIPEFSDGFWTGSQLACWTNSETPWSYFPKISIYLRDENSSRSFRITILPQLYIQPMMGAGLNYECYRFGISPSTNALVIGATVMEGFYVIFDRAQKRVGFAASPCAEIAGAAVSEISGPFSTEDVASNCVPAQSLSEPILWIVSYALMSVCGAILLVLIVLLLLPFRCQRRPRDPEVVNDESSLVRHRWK
Experimental: A substrate peptide NH3-ELDLAVEFWHDR-CO2 (SEQ ID NO.:1) (used for inhibition assay of memapsin 2, memapsin 1, and cathepsin D) was dissolved at 2 mg/ml in DMSO and diluted 1:100 in 0.1 M sodium acetate, pH 4.0 just prior to assay. Inhibitor dissolved in DMSO was diluted into 0.1 M sodium acetate, pH 4.0 (1:100 dilution). A […] aliquot of the inhibitor solution in pH 4 buffer was combined with […] of 0.1 M sodium acetate containing 100-200 nM of memapsin 1, memapsin 2, or cathepsin D. Following a pre-incubation at 37° C., the proteolytic assay was initated by addition of […] of the substrate diluted into pH 4 buffer, and incubation continued at 37° C. Aliquots were removed at time intervals, and combined with an equal volume of MALDI-TOF matrix (α-hydroxycinnamic acid in acetone, 20 mg/ml) and immediately spotted in duplicate onto a stainless-steel MALDI sample plate. MALDI-TOF mass spectrometry was performed on a PE Biosystems Voyager DE instrument at the Molecular Biology Resource Center on campus. The instrument was operated at 25,000 accelerating volts in positive mode with a 150 ns delay. Ions with a mass-to-charge ratio (m/z) were detected in the range of 650-2000 atomic mass units. Data were analyzed by the Voyager Data Explorer module to obtain ion intensity data for mass species of substrates and corresponding products in a given mixture. Relative product formation was calculated as the ratio of signal intensity of the product to the sum of signal intensities of both product and the corresponding substrate. Relative product formed per unit time was obtained from non-linear regression analysis of the data representing the initial 15% formation of product using the model: 1−e^−kT, where k was the relative hydrolytic rate constant and T was time in seconds. Alternatively, relative hydrolytic rates were determined using a fluorogenic cleavage assay (Ermolieff, J. et al., Biochemistry, 39: 12450-12456 (2000)). Initial rates from either method were expressed relative to uninhibited controls and the inhibition constant Ki was determined by a non-linear fit to a tight-binding model of competitive inhibition (Bieth, J., Bayer-Symposium V: Proteinase Inhibitors, pp 463-469, Spinger-Varlag, Berlin (1994)). Results are shown in Table 1 above (M2K, CDK, and M1K columns represent, respectively, the K1 values obtained for memapsin 2, cathepsin D and memapsin 1).

[1] = system: Aβ production in Chinese hamster ovary cells that over-express human APP695 with the London and Swedish mutations; assay: Cellular Aβ IC50 determination (Aβ40 sandwich ELISA); settings: Cricetulus griseus, CHO, 24 h, read-out: Cell, Aβ40, CHO cells over-expressing human APP695 (London and Swedish mutations), 24 h
Experimental: The potency of compounds against memapsin 2 catalytic activity was determined in a cellular assay of Aβ production. […] Compounds are dissolved in DMSO to concentrations near 1 mM, and diluted into culture media to a final concentration near 4 μM (final 0.4% DMSO). Compounds were diluted serially and applied to cells in multi-well plates 48 h after seeding. Incubation was continued in 5% CO2 at 37 degrees C. for 24 h. Aliquots were removed and assayed for Aβ40 content using a sandwich ELISA (BioSource International). Amount of Aβ40 over the range of concentration of compounds, relative to control incubations, were fit to a 4-parameter IC50 model.

Chain of memapsin 2 (P56817 46-501): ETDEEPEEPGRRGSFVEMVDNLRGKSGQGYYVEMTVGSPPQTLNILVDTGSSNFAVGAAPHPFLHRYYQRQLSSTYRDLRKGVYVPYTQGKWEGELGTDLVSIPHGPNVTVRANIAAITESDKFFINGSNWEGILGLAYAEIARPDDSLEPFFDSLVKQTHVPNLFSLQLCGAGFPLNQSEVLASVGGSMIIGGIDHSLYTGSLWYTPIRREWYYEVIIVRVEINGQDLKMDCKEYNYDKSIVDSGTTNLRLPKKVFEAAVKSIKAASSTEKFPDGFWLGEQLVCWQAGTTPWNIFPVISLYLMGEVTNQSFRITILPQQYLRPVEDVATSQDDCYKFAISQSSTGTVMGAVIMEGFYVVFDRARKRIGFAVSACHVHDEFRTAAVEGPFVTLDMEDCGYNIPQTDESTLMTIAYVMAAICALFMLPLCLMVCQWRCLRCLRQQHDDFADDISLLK

| Ki (memapsin 2) | Ki (cathepsin D) | Ki (memapsin 1) | IC50 [1] | Structure (SMILES) |
| --- | --- | --- | --- | --- |
| < 300 nM | < 300 nM | < 300 nM | < 1000 nM | CC(NC(=O)c1cc(C(=O)NC(Cc2ccccc2)C(O)CNCc2ccccc2O)cc(N(C)S(C)(=O)=O)c1)c1ccccc1 (stereo not drawn) [N1-(3-hydroxy-4-(2-hydroxybenzylamino)-1-phenylbutan-2-yl)-5-(N-methylmethylsulfonamido)-N3-(1-phenylethyl)isophthalamide] |
| 301 to 500 nM | < 300 nM | < 300 nM | < 1000 nM | CCN(c1cc(C(=O)NC(C)c2ccccc2)cc(C(=O)NC(Cc2ccccc2)C(O)CNCc2cccc(OC)c2)c1)S(C)(=O)=O (stereo not drawn) [5-(N-ethylmethylsulfonamido)-N1-(3-hydroxy-4-(3-methoxybenzylamino)-1-phenylbutan-2-yl)-N3-(1-phenylethyl)isophthalamide] |
| < 300 nM | < 300 nM | < 300 nM | < 1000 nM | COc1cccc(CNCC(O)C(Cc2ccccc2)NC(=O)c2cc(C(=O)NC(C)c3ccc(F)cc3)cc(N(C)S(C)(=O)=O)c2)c1 (stereo not drawn) [N1-(1-(4-fluorophenyl)ethyl)-N3-(3-hydroxy-4-(3-methoxybenzylamino)-1-phenylbutan-2-yl)-5-(N-methylmethylsulfonamido)isophthalamide] |
| < 300 nM | < 300 nM | > 501 nM | < 1000 nM | COc1cccc(CNCC(O)C(Cc2ccccc2)NC(=O)c2cc(C(=O)NCc3ccccc3)cc(N(C)S(C)(=O)=O)c2)c1 (stereo not drawn) [N1-benzyl-N3-(3-hydroxy-4-(3-methoxybenzylamino)-1-phenylbutan-2-yl)-5-(N-methylmethylsulfonamido)isophthalamide] |
| > 501 nM | > 501 nM | > 501 nM | < 1000 nM | COC(=O)c1cccc(CNCC(O)C(Cc2ccccc2)NC(=O)c2cc(C(=O)NC(C)c3ccccc3)cc(N(C)S(C)(=O)=O)c2)c1 (stereo not drawn) [methyl 3-((2-hydroxy-3-(3-(N-methylmethylsulfonamido)-5-(1-phenylethylcarbamoyl)benzamido)-4-phenylbutylamino)methyl)benzoate] |
| < 300 nM | < 300 nM | > 501 nM | < 1000 nM | COc1cccc(CNCC(O)C(Cc2ccccc2)NC(=O)c2cc(C(=O)NN(C)c3ccccc3)cc(N(C)S(C)(=O)=O)c2)c1 (stereo not drawn) [N-(3-hydroxy-4-(3-methoxybenzylamino)-1-phenylbutan-2-yl)-3-(2-methyl-2-phenylhydrazinecarbonyl)-5-(N-methylmethylsulfonamido)benzamide] |
| < 300 nM | < 300 nM | 301 to 500 nM | < 1000 nM | Cc1csc(CN(C)C(=O)c2cccc(C(=O)NC(Cc3ccccc3)C(O)CNCc3cncc(C(C)C)c3)c2)n1 (stereo not drawn) [N1-(3-hydroxy-4-((5-isopropylpyridin-3-yl)methylamino)-1-phenylbutan-2-yl)-N3-methyl-N3-((4-methylthiazol-2-yl)methyl)isophthalamide] |
| < 300 nM | 301 to 500 nM | > 501 nM | < 1000 nM | CC(NC(=O)c1cc(C(=O)NC(Cc2ccccc2)C(O)CNCc2cccc(F)c2)cc(N(C)S(C)(=O)=O)c1)c1ccccc1 (stereo not drawn) [N1-(4-(3-fluorobenzylamino)-3-hydroxy-1-phenylbutan-2-yl)-5-(N-methylmethylsulfonamido)-N3-(1-phenylethyl)isophthalamide] |

Further lines, the compound ahead of its results:

| Structure (SMILES) | Ki (memapsin 2) | Ki (cathepsin D) | Ki (memapsin 1) | IC50 [1] |
| --- | --- | --- | --- | --- |
| COc1cccc(CNCC(O)C(Cc2ccccc2)NC(=O)c2cc(C(=O)NCC3COC4OCCC34)cc(N(C)S(C)(=O)=O)c2)c1 (stereo not drawn) [N1-((hexahydrofuro[2,3-b]furan-3-yl)methyl)-N3-(3-hydroxy-4-(3-methoxybenzylamino)-1-phenylbutan-2-yl)-5-(N-methylmethylsulfonamido)isophthalamide] | 301 to 500 nM | 301 to 500 nM | > 501 nM | > 5000 nM |
| COc1cccc(CNCC(O)C(Cc2ccccc2)NC(=O)c2cc(C(=O)NC(C)c3cccnc3)cc(N(C)S(C)(=O)=O)c2)c1 (stereo not drawn) [N1-(3-hydroxy-4-(3-methoxybenzylamino)-1-phenylbutan-2-yl)-5-(N-methylmethylsulfonamido)-N3-(1-(pyridin-3-yl)ethyl)isophthalamide] | < 300 nM | > 501 nM | > 501 nM | < 1000 nM |
| CCC(NCC(O)C(Cc1ccccc1)NC(=O)c1cc(C(=O)NC(C)c2ccccc2)cc(N(C)S(C)(=O)=O)c1)c1ccccc1 (stereo not drawn) [N1-(3-hydroxy-1-phenyl-4-(1-phenylpropylamino)butan-2-yl)-5-(N-methylmethylsulfonamido)-N3-(1-phenylethyl)isophthalamide] | < 300 nM | < 300 nM | < 300 nM | < 1000 nM |
| CC(=O)Nc1cccc(CNCC(O)C(Cc2ccccc2)NC(=O)c2cc(C(=O)NC(C)c3ccccc3)cc(N(C)S(C)(=O)=O)c2)c1 (stereo not drawn) [N1-(4-(3-acetamidobenzylamino)-3-hydroxy-1-phenylbutan-2-yl)-5-(N-methylmethylsulfonamido)-N3-(1-phenylethyl)isophthalamide] | < 300 nM | 301 to 500 nM | < 300 nM | < 1000 nM |
| COc1cccc(C(C)NCC(O)C(Cc2ccccc2)NC(=O)c2cc(C(=O)NC(C)c3ccccc3)cc(N(C)S(C)(=O)=O)c2)c1 (stereo not drawn) [N1-(3-hydroxy-4-(1-(3-methoxyphenyl)ethylamino)-1-phenylbutan-2-yl)-5-(N-methylmethylsulfonamido)-N3-(1-phenylethyl)isophthalamide] | < 300 nM | < 300 nM | < 300 nM | < 1000 nM |
| CCC(NCC(O)C(Cc1ccccc1)NC(=O)c1cccc(C(=O)N(C)Cc2nc(C)cs2)c1)c1ccccc1 (stereo not drawn) [N1-(3-hydroxy-1-phenyl-4-(1-phenylpropylamino)butan-2-yl)-N3-methyl-N3-((4-methylthiazol-2-yl)methyl)isophthalamide] | > 501 nM | < 300 nM | > 501 nM | 1000 to 5000 nM |
| CC(NC(=O)c1cc(C(=O)NC(Cc2ccccc2)C(O)CNCc2ccncc2)cc(N(C)S(C)(=O)=O)c1)c1ccccc1 (stereo not drawn) [N1-(3-hydroxy-1-phenyl-4-(pyridin-4-ylmethylamino)butan-2-yl)-5-(N-methylmethylsulfonamido)-N3-(1-phenylethyl)isophthalamide] | < 300 nM | > 501 nM | 301 to 500 nM | < 1000 nM |
